In brackets after ≈: the same amount, converted by molar mass. Like-named read-outs stand apart in the source and are kept apart here.
Legend:
CYP2D6 = CYP2D6 (Homo sapiens (Human), UniProt P10635); assay: Cytochrome P450 CYP2D6 inhibition in human liver microsomes; assay type: in vitro ADME; details: probe dextromethorphan 2 µM (dextrorphan formation); 1 uM test compound, human liver microsomes; average value from two experiments; negative values = no effective inhibition
How it was run: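 Human liver microsomes (0.2 mg/mL) with 2 μM dextromethorphan in 100 mM PBS, test compound at 1 μM or 0.1-30 μM, 15 min preincubation then NADPH-started reaction for 20 min at 37° C, in duplicate. Dextrorphan formation by UPLC-MS/MS; IC50 from % decrease versus uninhibited control.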

[1] = Microsomal clearance assay; assay type: in vitro ADME; details: rat liver microsomes; average value from two experiments
Description: The microsomal stability of test compounds was evaluated using rat liver microsomes (BiolVT) with and without the cofactors nicotinamide adenine dinucleotide phosphate (NADPH) and undine-diphosphate-glucuronic acid (UDPGA). Reactions were performed in a final volume of 250 μl pre-warmed (37° C.) 100 mM phosphate buffer containing 5 mM MgCl2, 0.025 mg/ml alamethicin, and 0.5 mg/ml rat liver microsomes. NADPH and UDPGA were included at 1 mM and 2 mM respectively, where appropriate. Reactions were started with the addition of 1 μM (final concentration) test compound. Verapamil was used as the positive control. Solutions were incubated in a water bath at 37° C. and aliquots collected at 0.5, 5, 15, 30 and 60 min. Reactions were stopped by the addition of 5 volumes of cold acetonitrile with internal standards (200 nM caffeine and 100 nM tolbutamide). Samples were centrifuged at 3220 g for 40 min. An aliquot of supernatant was diluted 1:1 In ultra-pure H2O, then used for LC-MS/MS analysis. Peak areas were determined from extracted ion chromatograms. The slope value, k, was determined by linear regression of the natural logarithm of the remaining percentage of the parent drug vs. incubation time curve. The in vitro half-life (in vitro t½) was determined from the slope value: in vitro t½=0.693/k. Conversion of the in vitro t½ (min) into the in vitro intrinsic clearance (in vitro CLint, in μL/min/mg protein) was done using the following equation (mean of duplicate determinations): […]

[2] = PBS and FaSSIF solubility; assay type: physicochemical; details: kinetic from dmso stock
How it was run: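 Solubility was measured from 10 mM DMSO stocks diluted into FaSSIF or PBS pH 7.4, in duplicate, then shaken at 1100 rpm for 2 hr at 25 °C. Filtrates were quantified by LC-MS/MS against an internal standard and a known-concentration standard.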

mPTP [3] = assay: mPTP activity (Ca2+ retention) assay in isolated rat liver mitochondria; assay type: biochemical; details: isolated rat liver mitochondria; average value from multiple experiments (n ≥ 2)
How it was run: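 Freshly isolated female Sprague Dawley rat liver mitochondria were energised with succinate and rotenone in pH 7.4 buffer with Fluo5N, then pre-incubated 10 min at RT with compound (30 μM to 1 nM final) before a 75 μM CaCl2 bolus. The IC50 used 10-min fluorescence, normalised to DMSO and 5 μM cyclosporin A.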

mPTP [4] = assay: mPTP activity assay in isolated rat brain mitochondria; assay type: biochemical; details: isolated rat brain mitochondria
Description: mPTP activity was measured in brain mitochondria freshly isolated from female Sprague Dawley (250 to 300 gram) rats. Anaesthetised rats were perfused in-situ with ˜40 ml cold Dulbecco's Phosphate Buffered Saline (DPBS), then brains dissected and transferred into 30 ml Isolation Buffer (225 mM mannitol, 75 mM sucrose, 1 mM EGTA, adjusted to pH 7.4 with 1 M NaOH). The brain was minced using tweezers and a scalpel into ˜5 mm pieces then transferred into a 50 ml Potterton Dounce homogenization tube on ice containing 10 ml ice-cold isolation buffer (as above with addition of Complete Protease inhibitor; 1 tablet per 50 ml buffer).
Homogenisation was carried out using a […] pestle at 1800 rpm. The slurry was centrifuged at 2000 g for 10 min at 4° C., then the supernatant centrifuged at 12,000 g for 9 min. The pellet was resuspended with a dounce homogeniser in isolation buffer as above but with the addition of 0.02% digitonin, centrifuged at 12,000 g for 11 min and finally resuspended in 5 ml modified isolation buffer (as above but with EGTA reduced to 0.1 mM).
Test compounds were prepared in 384 well polypropylene assay plates as described above for the liver mitochondria assay. A stock mitochondria/Fluo5N assay solution was prepared in 5.6 ml assay buffer (120 mM mannitol, 40 mM MOPS, 5 mM KH2PO4, 60 mM KCl, 10 mM pyruvate, 2 mM malate, 2 mM MgCl2, 20 μM ADP, 1.26 μM oligomycin A, adjusted to pH 7.4) supplemented with Fluo5N pentapotassium salt (2 μM) and 1 ml mitochondria suspension, then transferred (15 μl) into the assay plate containing test compounds and incubated for 10 min at RT. Assay plates were then transferred to a FLIPR Tetra plate reader (Molecular Devices). Dye fluorescence was then measured every 3 sec for a total of 10 min. After 12 sec, a 2.5 μl bolus of Ca2+ (75 μM) was added from a source plate containing 675 μM CaCl2) in FLIPR assay buffer. IC50 values for test compounds were calculated using the fluorescence value collected at the 10 min timepoint with % inhibition calculated using the DMSO control and cyclosporin A values at […].

[5] = Hepatocyte clearance assay, rat; assay type: in vitro ADME; details: cryopreserved primary rat hepatocytes, average value from two experiments, read-out: Rat heps Clint
How it was run: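 Cryopreserved rat or human hepatocytes, 0.5×10^6 viable cells/mL in L-15 medium, incubated with compound at 37 °C; samples to 120 min, duplicate. Parent loss by LC/MS/MS; t½ = 0.693/k from ln-linear regression, converted to CLint in μL/min/1×10^6 cells.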

[6] = Hepatocyte clearance assay, human; assay type: in vitro ADME; details: cryopreserved primary human hepatocytes, average value from two experiments, read-out: Human heps Clint
Description: In vitro clearance studies were performed in primary rat and human hepatocytes (BiolVT). Vials of cryopreserved rat or human hepatocytes were thawed in a 37° C. water bath for 2 min. Cells were transferred into thawing medium (Williams' Medium E containing 30% Percoll, 1×GlutaMAX-1, 15 mM HEPES, 5% fetal bovine serum (FBS), 4 μg/ml insulin, 1 μM dexamethasone), centrifuged at 100 g for 10 min then resuspended in culture medium (Leibovitz's L-15 Medium) at a concentration of 0.5×10^6 viable cells/mL (number of viable cells assessed using AO/PI staining). Hepatocytes (198 μL) were transferred into wells of a 96-well non-coated plate and placed in a 37° C. incubator for 10 min. Test compound solutions were prepared from 10 mM stocks in DMSO, diluted to 100 μM in 50% (v/v in water) acetonitrile. Test compound samples (2 μl) were added to each well of hepatocytes and incubated at 37° C. Samples (25 μl) were collected at t=0, 15, 30, […] and 120 min, mixed with 6 volumes (150 μl) of acetonitrile containing internal standard (100 nM alprazolam, 200 nM caffeine and 100 nM tolbutamide), vortexed for 5 min and centrifuged for 45 min at 3220 g. An aliquot of supernatant (100 μL) was diluted with 100 μL ultra-pure water, and the mixture was used for LC/MS/MS analysis. All incubations were performed in duplicate. Peak areas were determined from extracted ion chromatograms. The slope value, k, was determined by linear regression of the natural logarithm of the remaining percentage of the parent drug vs. incubation time curve. The in vitro half-life (in vitro t½) was determined from the slope value: in vitro t½=0.693/k. Conversion of the in vitro t½ (in min) into the in vitro intrinsic clearance (in vitro CLint, in μL/min/1×10^6 cells) was done using the following equation (mean of duplicate determinations):
[formula] • V=incubation volume (0.2 mL) • N=number of hepatocytes per well (0.1×10^6 cells).

[7] = aqueous buffer, PBS pH 7.4, 2 hr at 25° C., read-out: Solubility PBS (pH 7.4)
[8] = fasted state simulated intestinal fluid (FaSSIF), fassif, Fasted state simulated intestinal fluid, 2 hr at 25° C., read-out: Solubility FaSSIF

CYP2D6, sequence (P10635 whole entry): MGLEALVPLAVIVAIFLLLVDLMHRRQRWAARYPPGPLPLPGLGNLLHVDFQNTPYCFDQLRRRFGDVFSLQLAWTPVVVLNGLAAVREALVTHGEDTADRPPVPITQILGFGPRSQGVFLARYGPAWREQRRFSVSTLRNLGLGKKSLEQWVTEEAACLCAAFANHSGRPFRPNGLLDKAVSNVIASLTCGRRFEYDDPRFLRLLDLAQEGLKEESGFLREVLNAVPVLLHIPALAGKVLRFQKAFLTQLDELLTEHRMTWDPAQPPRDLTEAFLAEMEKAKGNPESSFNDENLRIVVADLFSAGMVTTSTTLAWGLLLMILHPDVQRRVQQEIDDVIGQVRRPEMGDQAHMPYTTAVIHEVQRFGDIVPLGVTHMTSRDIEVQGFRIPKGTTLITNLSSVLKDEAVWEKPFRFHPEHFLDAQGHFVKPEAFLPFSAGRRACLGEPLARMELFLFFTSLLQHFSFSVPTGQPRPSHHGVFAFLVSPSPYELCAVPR

SMILES | inhibition at 20 min, 1 µM (CYP2D6) | microsomal CLint at 1 µM [1] | solubility at 2 h [2, 7] | mPTP Rat liver pIC50 (mPTP [3]) | mPTP Rat brain pIC50 (mPTP [4]) | hepatocyte CLint at 1 µM [5] | hepatocyte CLint at 1 µM [6] | solubility at 2 h [2, 8]
Cc1c(F)cccc1NC(=O)/C=C/c1ccc2nn[nH]c2c1 [Example 1, (E)-3-(1H-benzo[d][1,2,3]triazol-6-yl)-N-(3-fluoro-2-methylphenyl)acrylamide] | -2.11% | 106 µL/min/mg | 22.2 µM (≈ 6.58 µg/mL) | 7.3 |  |  |  | 
Cc1c(F)cccc1NC(=O)/C=C/c1cc(F)c2c(c1)NC(=O)C2 [Example 18, (E)-N-(3-fluoro-2-methylphenyl)-3-(4-fluoro-2-oxoindolin-6-yl)acrylamide] | 1.2% | 23 µL/min/mg | 1.11 µM (≈ 0.364 µg/mL) | 6.0 |  |  |  | 
CC1Cc2ccccc2C1NC(=O)/C=C/c1ccc2c(c1)NC(=O)C2 (stereo not drawn) [Example 21, (E)-N-(2-methyl-2,3-dihydro-1H-inden-1-yl)-3-(2-oxoindolin-6-yl)acrylamide] | 0.91% | 38 µL/min/mg | 26 µM (≈ 8.64 µg/mL) | 6.1 |  |  |  | 
Cc1n[nH]c2cc(/C=C/C(=O)N[C@H]3c4ccccc4C[C@@H]3OCCF)ccc12 [Example 68, (E)-N-((1S,2S)-2-(2-fluoroethoxy)-2,3-dihydro-1H-inden-1-yl)-3-(3-methyl-1H-indazol-6-yl)acrylamide] |  |  |  | 7.8 | 7.7 | 34.9 µL/min/1e6 cells | 12 µL/min/1e6 cells | 61.7 µM (≈ 23.4 µg/mL)
CCO[C@H]1Cc2ccccc2[C@@H]1NC(=O)/C=C/c1ccc2c(C)n[nH]c2c1 [Example 69, (E)-N-((1S,2S)-2-ethoxy-2,3-dihydro-1H-inden-1-yl)-3-(3-methyl-1H-indazol-6-yl)acrylamide] |  |  |  | 7.7 | 7.6 | 73 µL/min/1e6 cells | 17.9 µL/min/1e6 cells | 181 µM (≈ 65.3 µg/mL)
COc1cc(C)c(NC(=O)/C=C/c2cc3[nH]nc(C)c3cc2F)c(C)n1 [Example 95, (2E)-3-(5-fluoro-3-methyl-1H-indazol-6-yl)-N-(6-methoxy-2,4-dimethylpyridin-3-yl)prop-2-enamide] |  |  |  | 7.6 | 7.9 | 5 µL/min/1e6 cells | 3 µL/min/1e6 cells | 76 µM (≈ 26.9 µg/mL)
COc1cc(C)c(NC(=O)/C=C/c2cc3[nH]nc(Cl)c3cc2F)c(C)n1 [Example 96, (2E)-3-(3-chloro-5-fluoro-1H-indazol-6-yl)-N-(6-methoxy-2,4-dimethylpyridin-3-yl)prop-2-enamide] |  |  |  | 7.6 | 7.8 | 13 µL/min/1e6 cells | 6 µL/min/1e6 cells | 14 µM (≈ 5.25 µg/mL)
COc1cc(C)c(NC(=O)/C=C/c2cc3[nH]nc(C#N)c3cc2F)c(C)n1 [Example 98, (2E)-3-(3-cyano-5-fluoro-1H-indazol-6-yl)-N-(6-methoxy-2,4-dimethylpyridin-3-yl)prop-2-enamide] |  |  |  | 6.9 | 7.0 | 7 µL/min/1e6 cells | 9 µL/min/1e6 cells | 
Cc1c(F)cncc1NC(=O)/C=C/c1ccc2c(C)n[nH]c2c1 [Example 110, (2E)-N-(5-fluoro-4-methylpyridin-3-yl)-3-(3-methyl-1H-indazol-6-yl)prop-2-enamide] |  |  |  | 7.1 | 6.7 | 307 µL/min/1e6 cells | 45 µL/min/1e6 cells | 
Cc1ncc(F)c(C)c1NC(=O)/C=C/c1ccc2c(C)n[nH]c2c1 [Example 113, (2E)-N-(5-fluoro-2,4-dimethylpyridin-3-yl)-3-(3-methyl-1H-indazol-6-yl)prop-2-enamide] |  |  |  | 7.7 | 7.4 | 3 µL/min/1e6 cells | 3 µL/min/1e6 cells | 8 µM (≈ 2.59 µg/mL)
